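Method: 48-hour compound exposure of cells in 96-well plates, five concentrations, linear interpolation of endpoints. TGI: concentration producing complete growth inhibition.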 Where a SMILES comes first, the peptide text is derived from it. The star is where a group is joined. Boc = CC(C)(C)OC(=O)*

Test systems include ACHN renal; A549 NSCLC; SF-539 CNS; RPMI-8226 leukemia; SK-MEL-28 melanoma; TK-10 renal; EKVX NSCLC; CCRF-CEM leukemia.
What all share (assay): growth of human tumour cells (NCI), 48 h

Regarding `CC(=O)C(CN(CC(C)C)CC(C)C)C(c1ccccc1)c1c(O)c2ccccc2oc1=O` (stereo unspecified), the TGI with ACHN renal, in the experiment on A549 NSCLC, in the experiment with SF-539 CNS, with RPMI-8226 leukemia, in the experiment on SK-MEL-28 melanoma and in the experiment with TK-10 renal was more than 100 µM in each case. Moreover, the TGI in the experiment with EKVX NSCLC was more than 100 µM.
With `CCN(CC)CC1c2ccccc2C(CNc2ccccc2)N1C` (stereo unspecified), the TGI in the experiment on ACHN renal, in the experiment on A549 NSCLC, in the experiment with RPMI-8226 leukemia, with SK-MEL-28 melanoma, in the experiment with CCRF-CEM leukemia and in the experiment on TK-10 renal was more than 100 µM in each case. The TGI with EKVX NSCLC was more than 100 µM.
As for `Fc1ccc(C2SCc3nc4ccccc4n32)c(F)c1` (stereo unspecified), the TGI in the experiment on ACHN renal, in the experiment with A549 NSCLC, in the experiment on SF-539 CNS, in the experiment with RPMI-8226 leukemia, in the experiment on CCRF-CEM leukemia and with TK-10 renal was more than 100 µM throughout. Also, the TGI in the experiment on EKVX NSCLC is more than 100 µM.
Take `COC(=O)C1CC2CC(=NNC(N)=O)CC2C1` (stereo unspecified): the TGI with ACHN renal, in the experiment with A549 NSCLC, in the experiment with SF-539 CNS, in the experiment with RPMI-8226 leukemia, in the experiment on SK-MEL-28 melanoma and in the experiment on CCRF-CEM leukemia was more than 100 µM in each case. In addition, the TGI with TK-10 renal and in the experiment on EKVX NSCLC was more than 100 µM each time.
For the compound `CCCP1(=O)C=C(C)C(=C(Cl)Cl)C(C)=C1` (stereo unspecified), the TGI with ACHN renal, with A549 NSCLC, in the experiment with SF-539 CNS, with SK-MEL-28 melanoma, with CCRF-CEM leukemia and in the experiment with TK-10 renal was more than 100 µM throughout. In the experiment with EKVX NSCLC, the TGI was more than 100 µM.
Take `Cc1c(/C=N/N=C/c2[nH]c(C(=O)OC(C)(C)C)c(C)c2C)[nH]c(C(=O)OC(C)(C)C)c1C`: the TGI in the experiment with A549 NSCLC, in the experiment with SF-539 CNS, with RPMI-8226 leukemia, in the experiment with CCRF-CEM leukemia, with TK-10 renal and in the experiment with EKVX NSCLC was more than 100 µM throughout.
As for `COc1ccc(-c2cc(Cc3cccs3)c(=O)[nH]n2)cc1`, the TGI in the experiment on ACHN renal, in the experiment on A549 NSCLC, in the experiment on SF-539 CNS, with SK-MEL-28 melanoma, in the experiment on TK-10 renal and in the experiment on EKVX NSCLC was more than 100 µM each time.
On to `CC(=O)Nc1ccc(SC#N)c2c(NC(C)=O)cccc12`, for which the TGI in the experiment on ACHN renal is more than 100 µM; in the experiment on A549 NSCLC it was more than 100 µM; in the experiment on SF-539 CNS, more than 100 µM; in the experiment with RPMI-8226 leukemia, 73.9 µM; with SK-MEL-28 melanoma it was more than 100 µM; in the experiment with CCRF-CEM leukemia it was more than 90.6 µM. Also, the TGI with TK-10 renal and with EKVX NSCLC was more than 100 µM throughout.
For `CCOC(=O)C1C(=S)NC(=O)C1C#N` (stereo unspecified), the TGI in the experiment on ACHN renal, in the experiment with A549 NSCLC, with SF-539 CNS, in the experiment with RPMI-8226 leukemia, with SK-MEL-28 melanoma and in the experiment with CCRF-CEM leukemia was more than 100 µM in each case. For the same compound, the TGI with TK-10 renal and in the experiment with EKVX NSCLC was more than 100 µM each time.
Regarding `Cc1ccc2c(C3Cc4ccccc4N3C(=O)/C=C\C(=O)O)c(C)[nH]c2c1` (stereo unspecified), the TGI in the experiment with ACHN renal is more than 100 µM; in the experiment with A549 NSCLC, more than 100 µM; in the experiment on SF-539 CNS, more than 100 µM; in the experiment on RPMI-8226 leukemia, 79.7 µM; in the experiment with SK-MEL-28 melanoma, more than 100 µM; in the experiment on CCRF-CEM leukemia, 62.5 µM. For the same compound, the TGI with TK-10 renal and with EKVX NSCLC was more than 100 µM in each case.
As to `Cc1cccc(C)c1NC(=O)/C(=N/NC(N)=S)C(C)C(=O)c1ccc(Cl)cc1` (stereo unspecified), the TGI in the experiment with ACHN renal, in the experiment on A549 NSCLC, in the experiment on SF-539 CNS, in the experiment with RPMI-8226 leukemia, with SK-MEL-28 melanoma and with CCRF-CEM leukemia was more than 100 µM in each case. Further, the TGI with TK-10 renal and with EKVX NSCLC was more than 100 µM throughout.
Consider `CC#CCC1CCC(OCC)=CC1=O` (stereo unspecified), for which the TGI in the experiment with ACHN renal, in the experiment with A549 NSCLC, in the experiment on SF-539 CNS, in the experiment on RPMI-8226 leukemia, in the experiment with SK-MEL-28 melanoma and with CCRF-CEM leukemia was more than 100 µM in each case. Besides, the TGI with TK-10 renal and in the experiment on EKVX NSCLC was more than 100 µM in each case.
In the case of `COc1ccc(C=O)c([N+](=O)[O-])c1`, the TGI with ACHN renal is more than 100 µM; with A549 NSCLC, more than 100 µM; with SF-539 CNS, 47.2 µM; in the experiment on RPMI-8226 leukemia, more than 100 µM; in the experiment on SK-MEL-28 melanoma, more than 100 µM; in the experiment with CCRF-CEM leukemia, 76.3 µM. The TGI with TK-10 renal and in the experiment on EKVX NSCLC was more than 100 µM in each case.
In the case of `Cc1[nH]c2ccccc2c1C(=O)CC1(O)C(=O)Nc2c(Cl)cc(Cl)cc21` (stereo unspecified), the TGI in the experiment on ACHN renal amounted to 53.5 µM; in the experiment with A549 NSCLC, 96.3 µM; with SF-539 CNS, 61.7 µM; in the experiment on RPMI-8226 leukemia, 53.8 µM; in the experiment on SK-MEL-28 melanoma it was 62 µM; in the experiment with CCRF-CEM leukemia, 47.9 µM. Moreover, the TGI in the experiment with TK-10 renal is more than 100 µM.
Regarding `CC(=O)NC(CCCNC(=O)N(CCCl)N=O)C(=O)NCc1ccccc1` (stereo unspecified), the TGI with ACHN renal is more than 100 µM; in the experiment on A549 NSCLC, more than 100 µM; in the experiment with SF-539 CNS, 69.6 µM; in the experiment on RPMI-8226 leukemia, more than 100 µM; in the experiment on SK-MEL-28 melanoma, more than 100 µM; in the experiment on CCRF-CEM leukemia, more than 100 µM. Besides, the TGI with TK-10 renal and in the experiment on EKVX NSCLC was more than 100 µM each time.
Regarding `CCC(=O)C12OC3OC(C)(C)OC3C1OC(C)(C)O2` (stereo unspecified), the TGI with ACHN renal, in the experiment with A549 NSCLC, with SF-539 CNS, in the experiment on SK-MEL-28 melanoma, with CCRF-CEM leukemia and in the experiment with TK-10 renal was more than 100 µM in each case. In addition, the TGI in the experiment on EKVX NSCLC was more than 100 µM.
Regarding `COC(=O)C1(C)CCc2c(OC)ccc(OC)c2C1=O` (stereo unspecified), the TGI in the experiment with ACHN renal, with A549 NSCLC, in the experiment on SF-539 CNS, in the experiment on RPMI-8226 leukemia, in the experiment on SK-MEL-28 melanoma and with CCRF-CEM leukemia was more than 100 µM throughout. The TGI in the experiment on TK-10 renal and in the experiment with EKVX NSCLC was more than 100 µM throughout.
On to `Cc1ccc(/C=C/C(=O)C(C)(C)CN2CCCCC2)cc1`, for which the TGI amounted to 23.7 µM in the experiment on ACHN renal; 33.1 µM in the experiment with A549 NSCLC; 16.8 µM with SF-539 CNS; 14.7 µM in the experiment with RPMI-8226 leukemia; 33.4 µM in the experiment with SK-MEL-28 melanoma; 10.4 µM in the experiment on CCRF-CEM leukemia. The TGI in the experiment with TK-10 renal amounted to 24.1 µM; with EKVX NSCLC, 14.3 µM.
As to `O=C1NC(=O)C2C(=O)NC(=O)C1C2c1c(Cl)cccc1Cl` (stereo unspecified), the TGI with ACHN renal is more than 100 µM; in the experiment on A549 NSCLC, more than 100 µM; in the experiment with SF-539 CNS, more than 100 µM; in the experiment on RPMI-8226 leukemia it was more than 67.2 µM; in the experiment with SK-MEL-28 melanoma, more than 100 µM; in the experiment on CCRF-CEM leukemia it was more than 69.6 µM. Besides, the TGI in the experiment on TK-10 renal and in the experiment on EKVX NSCLC was more than 100 µM throughout.
Regarding `COc1ccc2c(c1)C(=O)C1CC(=O)CCC21` (stereo unspecified), the TGI in the experiment on ACHN renal, with A549 NSCLC, in the experiment on SF-539 CNS, in the experiment on RPMI-8226 leukemia, in the experiment with SK-MEL-28 melanoma and in the experiment on CCRF-CEM leukemia was more than 100 µM throughout. For the same compound, the TGI with TK-10 renal and in the experiment on EKVX NSCLC was more than 100 µM in each case.
On to `O=C1OC(Cc2ccccc2)(N2CCCC2=O)C1c1ccccc1` (stereo unspecified), for which the TGI with ACHN renal, in the experiment on A549 NSCLC, in the experiment with RPMI-8226 leukemia, with SK-MEL-28 melanoma, with CCRF-CEM leukemia and with TK-10 renal was more than 100 µM each time. In addition, the TGI in the experiment on EKVX NSCLC is more than 100 µM.
As for `CC(C)(C)OC(=O)NC(Cc1ccc(O)cc1)C(=O)N1CCCC1C(=O)O` (stereo not drawn) (Boc-Tyr-Pro-OH; configuration not given here), the TGI in the experiment with ACHN renal, in the experiment with A549 NSCLC, in the experiment with SF-539 CNS, in the experiment on RPMI-8226 leukemia, in the experiment with SK-MEL-28 melanoma and in the experiment with CCRF-CEM leukemia was more than 100 µM in each case. For the same compound, the TGI in the experiment with TK-10 renal and in the experiment on EKVX NSCLC was more than 100 µM each time.
Consider `N#CC(=C1C=CC(=NO)C=C1)c1ccc(Cl)cc1`, for which the TGI was determined as 24.9 µM in the experiment with ACHN renal; 49.7 µM with A549 NSCLC; 25.4 µM in the experiment on SF-539 CNS; 15.3 µM in the experiment with RPMI-8226 leukemia; 37.9 µM in the experiment with SK-MEL-28 melanoma; 9.01 µM with CCRF-CEM leukemia. The same compound came in with a TGI in the experiment with TK-10 renal of 75 µM.
Consider `Cc1ccc(-c2nnc(-c3nn(-c4ccccc4)c4nc5ccccc5nc34)o2)cc1`, for which the TGI in the experiment with ACHN renal was 35.2 µM; in the experiment with A549 NSCLC it was 41.4 µM; in the experiment on SF-539 CNS it was 9.62 µM; in the experiment on RPMI-8226 leukemia it was more than 100 µM; in the experiment with SK-MEL-28 melanoma, more than 100 µM; in the experiment on CCRF-CEM leukemia it was 64.3 µM. For the same compound, the TGI with TK-10 renal was 31.2 µM; with EKVX NSCLC it was more than 100 µM.
Turning to `CC/C=C\C/C=C\C/C=C\CCCCCCCC(=O)OCC(O)CO` (stereo unspecified), the TGI with ACHN renal was more than 72.5 µM; in the experiment on A549 NSCLC, more than 100 µM; in the experiment on SF-539 CNS, more than 100 µM; in the experiment with RPMI-8226 leukemia it was more than 77.7 µM; in the experiment on SK-MEL-28 melanoma, more than 100 µM; in the experiment on CCRF-CEM leukemia, more than 72.9 µM. In addition, the TGI with TK-10 renal and with EKVX NSCLC was more than 100 µM throughout.
Turning to `O=C(NC1CCCCC1)NS(=O)(=O)c1ccc2c(c1)CCC2`, the TGI in the experiment on ACHN renal, in the experiment with A549 NSCLC, with SF-539 CNS, in the experiment on RPMI-8226 leukemia, in the experiment on SK-MEL-28 melanoma and in the experiment with CCRF-CEM leukemia was more than 100 µM in each case. The TGI with TK-10 renal and in the experiment with EKVX NSCLC was more than 100 µM each time.
